Laboratory results: ChEMBL document CHEMBL1201862, “PubChem BioAssay data set” (2004)
The source made the active and inactive calls.

Key:
[1] = target: T1, Polyadenylate-binding protein 1 (Homo sapiens, UniProt P11940); experiment: MLLE binding blockers, Cy5 peptide tracer – biochemical, fluorescence polarization, Cy5-PAM2 peptide, secondary, miRNA deadenylation inhibitor project, dose response (AID 602260); format: functional; settings: read-out: IC50_Mean
[2] = target: T1, Polyadenylate-binding protein 1; experiment: MLLE domain peptide-binding blockers, IC50 – biochemical, fluorescence polarization, FITC-PAM2 peptide, dose response (AID 602259); format: functional; settings: read-out: IC50_Mean
cells [3] = format: functional, cell-based
cells [4] = format: functional, cell-based; remark: listed apart in the source
[5] = target: T2, Rac GTPase-activating protein 1 (Homo sapiens, UniProt Q9H0H5); experiment: blockers of MgcRacGAP-driven Rac1 GTP hydrolysis – biochemical, ADP Hunter fluorescence, primary and confirmatory, confirmation (AID 624330); format: functional
T2 sequence (Q9H0H5 whole entry): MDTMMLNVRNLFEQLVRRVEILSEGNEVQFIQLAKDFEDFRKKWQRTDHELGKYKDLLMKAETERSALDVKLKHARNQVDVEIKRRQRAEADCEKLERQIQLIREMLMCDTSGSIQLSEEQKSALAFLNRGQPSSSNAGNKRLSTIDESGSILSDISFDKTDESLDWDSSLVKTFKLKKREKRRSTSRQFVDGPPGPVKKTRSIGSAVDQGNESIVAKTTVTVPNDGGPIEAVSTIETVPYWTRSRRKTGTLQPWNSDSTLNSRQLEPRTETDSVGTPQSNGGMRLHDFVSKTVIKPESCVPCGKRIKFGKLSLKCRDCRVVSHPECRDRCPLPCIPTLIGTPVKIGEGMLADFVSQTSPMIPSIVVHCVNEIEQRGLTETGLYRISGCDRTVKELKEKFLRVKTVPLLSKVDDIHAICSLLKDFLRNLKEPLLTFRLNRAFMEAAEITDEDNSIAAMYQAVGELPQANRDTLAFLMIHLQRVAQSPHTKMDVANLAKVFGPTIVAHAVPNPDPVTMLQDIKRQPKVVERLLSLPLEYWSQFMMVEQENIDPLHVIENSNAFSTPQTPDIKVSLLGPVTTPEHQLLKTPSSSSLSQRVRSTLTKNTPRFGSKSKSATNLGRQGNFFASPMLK

[6] = target: Induced myeloid leukemia cell differentiation protein Mcl-1 (Homo sapiens, UniProt Q07820); format: functional
[7] = target: T3, RNA-binding protein pos-1 (Caenorhabditis elegans, UniProt G5EF15); experiment: disruptors of C. elegans POS-1 RNA interaction – biochemical, fluorescence polarization, dose response (AID 1964);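 further: purified POS-1 fused to maltose binding protein made in E. coli; potency of compounds blocking POS-1 binding to fluorescent RNA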
T3 sequence (G5EF15 whole entry): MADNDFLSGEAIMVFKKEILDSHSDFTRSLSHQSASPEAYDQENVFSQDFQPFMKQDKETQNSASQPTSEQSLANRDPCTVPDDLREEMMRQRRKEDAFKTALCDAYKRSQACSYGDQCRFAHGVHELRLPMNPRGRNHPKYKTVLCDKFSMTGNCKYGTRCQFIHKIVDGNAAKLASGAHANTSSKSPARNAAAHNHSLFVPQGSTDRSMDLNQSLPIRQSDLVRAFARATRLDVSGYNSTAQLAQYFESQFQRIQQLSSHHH

[8] = target: T4, Zinc finger protein mex-5 (Caenorhabditis elegans, UniProt Q9XUB2); experiment: potency of MEX-5 RNA-binding blockers – biochemical, C. elegans, fluorescence polarization, dose response (AID 1960)
T4 sequence (Q9XUB2 whole entry): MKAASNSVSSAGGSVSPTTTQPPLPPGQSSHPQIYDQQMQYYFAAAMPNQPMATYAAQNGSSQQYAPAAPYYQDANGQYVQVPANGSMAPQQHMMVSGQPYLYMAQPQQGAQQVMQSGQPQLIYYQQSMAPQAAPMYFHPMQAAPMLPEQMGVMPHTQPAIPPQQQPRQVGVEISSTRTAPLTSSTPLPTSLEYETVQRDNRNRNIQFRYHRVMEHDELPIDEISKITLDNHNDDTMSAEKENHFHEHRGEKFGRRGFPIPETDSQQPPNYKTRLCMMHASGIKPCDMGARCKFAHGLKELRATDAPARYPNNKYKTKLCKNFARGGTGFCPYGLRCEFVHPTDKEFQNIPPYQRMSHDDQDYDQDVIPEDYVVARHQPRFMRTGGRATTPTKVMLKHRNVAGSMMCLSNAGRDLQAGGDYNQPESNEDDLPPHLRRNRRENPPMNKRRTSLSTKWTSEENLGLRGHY

[9] = target: T5, Replicative DNA helicase DnaB (Mycobacterium tuberculosis, UniProt P9WMR3); experiment: DnaB intein splicing inhibitors, dose response, biochemical, cell-free fluorescence (AID 449749); format: functional
T5 sequence (P9WMR3 whole entry): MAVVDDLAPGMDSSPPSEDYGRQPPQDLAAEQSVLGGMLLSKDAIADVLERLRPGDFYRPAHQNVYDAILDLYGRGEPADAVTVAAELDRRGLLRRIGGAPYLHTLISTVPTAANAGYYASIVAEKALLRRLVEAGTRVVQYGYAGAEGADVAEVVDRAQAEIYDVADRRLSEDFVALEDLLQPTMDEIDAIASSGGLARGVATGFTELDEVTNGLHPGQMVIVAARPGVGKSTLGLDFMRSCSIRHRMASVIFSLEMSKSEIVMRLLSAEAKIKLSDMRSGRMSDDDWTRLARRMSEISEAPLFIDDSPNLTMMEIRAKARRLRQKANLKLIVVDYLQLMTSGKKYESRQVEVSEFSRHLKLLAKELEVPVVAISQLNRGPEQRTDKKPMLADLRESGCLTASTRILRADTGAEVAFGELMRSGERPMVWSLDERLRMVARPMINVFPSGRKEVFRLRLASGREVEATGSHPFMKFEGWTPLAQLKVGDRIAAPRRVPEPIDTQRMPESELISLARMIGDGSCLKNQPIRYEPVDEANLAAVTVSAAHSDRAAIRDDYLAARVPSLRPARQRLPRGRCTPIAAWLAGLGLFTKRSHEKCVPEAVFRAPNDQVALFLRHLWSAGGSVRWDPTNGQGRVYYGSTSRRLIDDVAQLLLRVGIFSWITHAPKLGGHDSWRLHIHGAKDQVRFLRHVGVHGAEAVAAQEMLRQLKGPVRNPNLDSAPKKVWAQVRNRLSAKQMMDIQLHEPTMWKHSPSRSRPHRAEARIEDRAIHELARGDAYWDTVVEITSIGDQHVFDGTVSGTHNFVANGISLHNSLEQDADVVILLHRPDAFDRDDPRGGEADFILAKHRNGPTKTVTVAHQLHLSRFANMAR

Protein RecA = target: T6, Protein RecA (Mycobacterium tuberculosis, UniProt P9WHJ3); experiment: Fluorescence Cell-Free Homogeneous Dose Retest to Identify Inhibitors of RecA-Intein Splicing Activity. [Related pubchem assays (depositor defined):AID2097, AID2223, AID489010, AID492950]; format: functional
T6 sequence (P9WHJ3 whole entry): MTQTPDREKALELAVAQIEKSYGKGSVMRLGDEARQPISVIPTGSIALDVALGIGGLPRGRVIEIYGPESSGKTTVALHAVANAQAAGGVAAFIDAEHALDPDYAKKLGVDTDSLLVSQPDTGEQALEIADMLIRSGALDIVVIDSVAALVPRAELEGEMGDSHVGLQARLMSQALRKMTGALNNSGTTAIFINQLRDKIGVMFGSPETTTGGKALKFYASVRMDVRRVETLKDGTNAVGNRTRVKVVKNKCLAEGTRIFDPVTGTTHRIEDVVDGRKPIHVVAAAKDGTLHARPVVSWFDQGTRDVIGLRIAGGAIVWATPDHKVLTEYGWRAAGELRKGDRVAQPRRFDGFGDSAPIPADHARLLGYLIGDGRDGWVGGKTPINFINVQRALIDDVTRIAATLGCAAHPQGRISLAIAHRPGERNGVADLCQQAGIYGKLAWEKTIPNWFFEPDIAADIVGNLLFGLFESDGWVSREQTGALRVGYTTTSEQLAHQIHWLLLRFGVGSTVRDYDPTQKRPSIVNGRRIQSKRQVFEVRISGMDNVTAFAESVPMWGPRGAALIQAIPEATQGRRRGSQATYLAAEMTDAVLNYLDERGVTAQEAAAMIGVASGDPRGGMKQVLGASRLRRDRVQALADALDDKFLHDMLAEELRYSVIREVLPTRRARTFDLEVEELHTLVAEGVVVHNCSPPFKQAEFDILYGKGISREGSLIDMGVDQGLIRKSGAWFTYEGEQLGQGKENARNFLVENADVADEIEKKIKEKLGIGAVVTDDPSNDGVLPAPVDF

[10] = target: Luciferin 4-monooxygenase (Photinus pyralis, UniProt P08659); experiment: inhibition of purified Photinus pyralis luciferase – biochemical, luminescence, dose response (AID 1891)
[11] = Luminescence Cell-Based Dose Confirmation HTS to Identify Inhibitors of Platelet Dense Granule Release. [Related pubchem assays: 1663 (Primary HTS), 1678 (Summary of Project)]; format: functional
Protein skinhead-1 = target: T7, Protein skinhead-1 (Caenorhabditis elegans, UniProt P34707); format: functional
T7 sequence (P34707 whole entry): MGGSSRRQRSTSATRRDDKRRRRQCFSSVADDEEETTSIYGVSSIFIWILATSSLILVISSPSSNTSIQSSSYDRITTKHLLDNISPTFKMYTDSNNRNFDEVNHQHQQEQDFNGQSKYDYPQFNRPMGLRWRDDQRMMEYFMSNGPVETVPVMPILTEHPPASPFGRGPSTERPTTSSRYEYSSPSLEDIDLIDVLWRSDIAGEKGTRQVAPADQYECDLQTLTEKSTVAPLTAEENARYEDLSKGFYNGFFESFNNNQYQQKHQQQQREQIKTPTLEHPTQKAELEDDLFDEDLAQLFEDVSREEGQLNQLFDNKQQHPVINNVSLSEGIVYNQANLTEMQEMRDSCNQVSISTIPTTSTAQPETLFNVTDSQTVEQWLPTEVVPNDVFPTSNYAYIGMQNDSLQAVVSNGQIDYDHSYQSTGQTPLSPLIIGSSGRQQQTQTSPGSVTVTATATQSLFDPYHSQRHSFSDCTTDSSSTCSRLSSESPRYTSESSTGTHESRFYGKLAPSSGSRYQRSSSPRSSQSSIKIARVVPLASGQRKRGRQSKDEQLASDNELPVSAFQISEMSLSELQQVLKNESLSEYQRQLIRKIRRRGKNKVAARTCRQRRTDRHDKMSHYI

Large T antigen = Large T antigen (Simian virus 40, UniProt P03070); format: functional, Betapolyomavirus macacae;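 further: Confirmatory-stage PubChem screen for compounds that inhibit SV40 T antigen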
Sequence of Large T antigen (P03070 whole entry): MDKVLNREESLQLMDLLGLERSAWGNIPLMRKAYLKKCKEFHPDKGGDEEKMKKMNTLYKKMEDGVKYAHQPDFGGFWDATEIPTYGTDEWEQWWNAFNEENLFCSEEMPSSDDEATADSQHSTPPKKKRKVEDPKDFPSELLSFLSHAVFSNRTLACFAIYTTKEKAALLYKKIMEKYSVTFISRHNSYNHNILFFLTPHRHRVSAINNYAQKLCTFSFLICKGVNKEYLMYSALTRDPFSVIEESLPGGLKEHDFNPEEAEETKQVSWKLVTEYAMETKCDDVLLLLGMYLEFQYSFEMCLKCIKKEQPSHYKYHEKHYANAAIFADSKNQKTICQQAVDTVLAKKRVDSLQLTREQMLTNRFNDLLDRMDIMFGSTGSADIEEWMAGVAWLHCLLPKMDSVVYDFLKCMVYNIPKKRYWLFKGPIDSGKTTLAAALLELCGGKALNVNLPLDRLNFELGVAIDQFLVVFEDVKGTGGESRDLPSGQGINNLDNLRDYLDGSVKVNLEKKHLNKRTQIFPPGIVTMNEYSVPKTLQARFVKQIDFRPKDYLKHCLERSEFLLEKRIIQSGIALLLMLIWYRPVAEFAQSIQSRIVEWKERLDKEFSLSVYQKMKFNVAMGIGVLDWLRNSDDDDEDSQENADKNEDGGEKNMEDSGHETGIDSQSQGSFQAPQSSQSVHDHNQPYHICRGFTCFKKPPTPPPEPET

T1 sequence (P11940 whole entry, the tested form may be a part): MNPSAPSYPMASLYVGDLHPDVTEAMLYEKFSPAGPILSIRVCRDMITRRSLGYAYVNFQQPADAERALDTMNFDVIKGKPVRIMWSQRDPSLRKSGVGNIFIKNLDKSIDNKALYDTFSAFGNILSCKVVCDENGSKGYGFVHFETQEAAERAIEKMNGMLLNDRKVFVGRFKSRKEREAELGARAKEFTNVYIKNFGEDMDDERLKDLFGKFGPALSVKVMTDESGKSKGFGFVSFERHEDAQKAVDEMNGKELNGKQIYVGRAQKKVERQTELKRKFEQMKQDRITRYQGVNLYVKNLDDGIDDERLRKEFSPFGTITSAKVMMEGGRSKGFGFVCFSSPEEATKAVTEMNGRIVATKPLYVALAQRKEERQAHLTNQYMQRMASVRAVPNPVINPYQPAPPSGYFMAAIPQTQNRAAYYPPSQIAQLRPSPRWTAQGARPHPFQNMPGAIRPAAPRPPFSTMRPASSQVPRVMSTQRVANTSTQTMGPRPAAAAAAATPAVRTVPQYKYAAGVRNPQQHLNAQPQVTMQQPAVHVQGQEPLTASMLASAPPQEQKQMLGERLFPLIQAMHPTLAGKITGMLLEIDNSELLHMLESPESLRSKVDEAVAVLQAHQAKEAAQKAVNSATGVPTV
Sequence of Induced myeloid leukemia cell differentiation protein Mcl-1 (Q07820 whole entry, the tested form may be a part): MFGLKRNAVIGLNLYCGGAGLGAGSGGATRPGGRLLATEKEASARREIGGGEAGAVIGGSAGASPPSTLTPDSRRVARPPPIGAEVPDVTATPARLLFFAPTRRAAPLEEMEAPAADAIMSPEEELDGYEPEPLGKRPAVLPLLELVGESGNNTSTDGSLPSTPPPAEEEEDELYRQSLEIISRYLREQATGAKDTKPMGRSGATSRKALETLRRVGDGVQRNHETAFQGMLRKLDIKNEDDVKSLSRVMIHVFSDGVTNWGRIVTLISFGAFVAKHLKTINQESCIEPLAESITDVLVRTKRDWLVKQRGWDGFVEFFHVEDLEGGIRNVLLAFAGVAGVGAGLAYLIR
Sequence of Luciferin 4-monooxygenase (P08659 whole entry): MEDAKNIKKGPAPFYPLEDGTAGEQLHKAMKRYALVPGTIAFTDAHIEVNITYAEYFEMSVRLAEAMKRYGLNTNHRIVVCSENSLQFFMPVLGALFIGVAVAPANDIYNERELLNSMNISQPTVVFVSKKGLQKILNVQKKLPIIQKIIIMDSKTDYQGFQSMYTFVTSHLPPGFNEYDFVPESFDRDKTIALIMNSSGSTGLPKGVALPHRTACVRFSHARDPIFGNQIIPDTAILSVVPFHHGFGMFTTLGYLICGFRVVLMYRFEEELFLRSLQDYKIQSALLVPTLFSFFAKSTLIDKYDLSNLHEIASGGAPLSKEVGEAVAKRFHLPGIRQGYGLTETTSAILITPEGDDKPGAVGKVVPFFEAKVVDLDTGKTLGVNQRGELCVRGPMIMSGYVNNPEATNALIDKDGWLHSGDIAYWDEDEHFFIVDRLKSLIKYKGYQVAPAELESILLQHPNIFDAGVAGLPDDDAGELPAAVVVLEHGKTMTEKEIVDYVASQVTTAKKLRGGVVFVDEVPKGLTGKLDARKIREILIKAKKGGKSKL

## CC(=O)C(Sc1nccc(-c2cccs2)n1)C(C)=O
[1]
  IC50: > 66 µM (inactive)
[2]
  IC50: > 66 µM (inactive)

## Cc1ccc(SC2CC(=O)N(c3ccc4c(c3)OCCO4)C2=O)cc1 (centres undefined)
[1]
  IC50: > 66 µM (inactive)
[2]
  IC50: > 66 µM (inactive)

## O=[N+]([O-])c1ccc(-c2nc(=S)c3c(o2)CCCC3)cc1
[1]
  IC50: > 66 µM (inactive)
[2]
  IC50: > 66 µM (inactive)

## CCN1CCN(c2ccc([N+](=O)[O-])cc2C=C2C(=O)NC(=O)NC2=O)CC1
Cells [3]
  EC50: > 350 µM (not active)
Cells [4]
  EC50: > 350 µM (not active)

## COc1ccccc1CNCC(=O)Nc1ccc(N(C)C)cc1
[5]
  IC50: 32.1 µM (active)

## CCN=c1ccc(Br)cc(C(=O)/C=C/c2ccc(Cl)cc2)c1O
[6]
  IC50: 3.55 µM (active)

## Cc1ccc(O)c(NC(=O)c2ccc3c(c2)C(=O)N(Cc2ccco2)C3=O)c1
Cells [3]
  EC50: > 350 µM (not active)
Cells [4]
  EC50: 52.2 µM (active)

## CCN1C(=O)/C(=C/c2ccc3c(c2)CCN3CCCCl)C(=O)NC1=S
[6]
  IC50: 3.4 µM (active)

## CCN(CC)C(=O)CSc1nnc2nnc3cc(Cl)ccc3n12
[7]
  EC50: 23.2 µM (active)
[8]
  EC50: 18.5 µM (active)
[9]
  AC50: > 380 µM (inactive)
Protein RecA
  EC50: 0.499 µM (active)
[1]
  IC50: > 66 µM (inactive)
[2]
  IC50: 34.4 µM (inactive)

## COc1cccc(N2CC(C(=O)Oc3ccc4ccccc4c3)CC2=O)c1 (centres undefined)
[5]
  IC50: 16.1 µM (active)

## Cc1ccc(NC(=O)CC2SC(=O)N(c3ccccc3)C2=O)cc1 (centres undefined)
[10]
  EC50: > 112 µM (not active)
[11]
  EC50: 109 µM (active)
[1]
  IC50: > 66 µM (inactive)
[2]
  IC50: > 66 µM (inactive)

## Cc1cc(NC(=O)CN2CCN(C)CC2)no1
[5]
  IC50: 157 µM (active)

## Cc1ccc(S(=O)(=O)Nc2nsc(N)n2)cc1
[5]
  IC50: 82.8 µM (active)

## C/C(=C\C(=O)OCC(=O)NCc1ccccc1)C(=O)OCC(=O)NCc1ccccc1
Cells [3]
  EC50: > 350 µM (not active)
Cells [4]
  EC50: > 350 µM (not active)

## CSCc1nc2sc(C(=O)Nc3nc(C)cs3)c(C)c2c(=O)[nH]1
[6]
  IC50: 3.89 µM (active)

## CCOC(=O)CN(C(=O)COc1nc(C)cc(C)c1C#N)c1cccc(Cl)c1
Cells [3]
  EC50: > 350 µM (not active)
Cells [4]
  EC50: > 350 µM (not active)

## Cc1cc2cc(CNC(=O)Cc3ccc([N+](=O)[O-])cc3)ccc2n1C
[1]
  IC50: > 66 µM (inactive)
[2]
  IC50: > 66 µM (inactive)
Protein skinhead-1
  IC50: > 100 µM (inactive)

## Cc1cc2cc(CNC(=O)c3cccs3)ccc2n1C
[1]
  IC50: > 66 µM (inactive)
[2]
  IC50: > 66 µM (inactive)

## O=C1NC(=O)C(=Cc2cccs2)C(=O)N1
[5]
  IC50: 188 µM (active)

## O=C(N/N=C/c1ccc(O)c(O)c1)c1ccc(CSc2cccc3cccnc23)cc1
Large T antigen
  IC50: 5.43 µM (active)
[6]
  IC50: 4.61 µM (active)
